In patent US20230159469A1, “NOVEL PHTHALAZINE DERIVATIVE HAVING ECTONUCLOEOTIDE PYROPHOSPHATASE/PHOSPHODIESTE RASE INHIBITORY ACTIVITY, AND USE THEREOF” (TXINNO BIOSCIENCE INC., priority 2020, published 2023):
Where a name gives a salt, the structure may show the parent alone.

molecular target: T1, human recombinant ENPP1 (Homo sapiens, UniProt P22413); assay: ENPP1 enzyme assay with cGAMP substrate (AMP-Glo luminescence); format: biochemical; conditions: human recombinant ENPP1 3 ng/reaction, cGAMP 5 μM, 37° C. 90 minutes, read-out: Enzymatic activity (ENPP1 IC50)
T1 construct: purchased R & D systems
T1 sequence (P22413 1-925): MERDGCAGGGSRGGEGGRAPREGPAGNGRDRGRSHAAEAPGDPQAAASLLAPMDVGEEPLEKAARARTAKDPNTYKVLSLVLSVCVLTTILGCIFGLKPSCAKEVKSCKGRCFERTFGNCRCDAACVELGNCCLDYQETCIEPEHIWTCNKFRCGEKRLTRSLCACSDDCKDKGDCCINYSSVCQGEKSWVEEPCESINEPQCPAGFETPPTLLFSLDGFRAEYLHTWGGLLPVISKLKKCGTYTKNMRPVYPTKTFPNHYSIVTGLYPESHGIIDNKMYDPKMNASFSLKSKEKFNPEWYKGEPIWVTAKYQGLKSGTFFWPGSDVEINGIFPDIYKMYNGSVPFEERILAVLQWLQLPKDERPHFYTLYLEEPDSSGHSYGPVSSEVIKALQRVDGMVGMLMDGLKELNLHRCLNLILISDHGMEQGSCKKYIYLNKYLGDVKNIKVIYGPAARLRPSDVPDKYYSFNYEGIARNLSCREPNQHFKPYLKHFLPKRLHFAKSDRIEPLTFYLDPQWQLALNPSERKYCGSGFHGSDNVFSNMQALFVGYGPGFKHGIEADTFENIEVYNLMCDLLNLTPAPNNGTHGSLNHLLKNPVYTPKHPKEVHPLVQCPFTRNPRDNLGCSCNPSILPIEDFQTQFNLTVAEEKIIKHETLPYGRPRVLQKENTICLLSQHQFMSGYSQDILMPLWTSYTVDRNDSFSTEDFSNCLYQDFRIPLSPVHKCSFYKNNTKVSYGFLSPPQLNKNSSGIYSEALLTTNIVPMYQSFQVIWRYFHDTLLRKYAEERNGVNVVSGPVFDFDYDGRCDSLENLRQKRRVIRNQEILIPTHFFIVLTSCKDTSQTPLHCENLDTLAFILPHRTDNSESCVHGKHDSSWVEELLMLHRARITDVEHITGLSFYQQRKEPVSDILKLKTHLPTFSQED
Method: ENPP1 hydrolyzes nucleotides or nucleotide derivatives to produce nucleoside -5′-monophosphate and pyrophosphate. in addition, ENPP1 hydrolyzes 2′,3′-cGAMP to produce 5′-adenosine monophosphate (AMP) and 5′-guanosine monophosphate (GMP). AMP produced from the reaction is measured using the AMP-Glo® kit (Promega). The AMP-Glo® kit contains two reagents. The first reagent terminates the AMP-producing enzymatic reaction, removes ATP and converts the produced AMP into ADP. The second reagent converts ADP to ATP which is used to generate luminescence in the luciferase reaction. The amount of luminescence measured is proportional to the amount of AMP produced by ENPP1.
The final reaction mixture contains 50 mM Tris (pH 8.5) buffer, 250 mM NaCl, 0.5 mM. CaCl2, 1 μM ZnCl2, 5% glycerol and 1% DMSO. […] The reaction was initiated by addition of cGAMP (at a final concentration of 5 μM) and reacted at 37° C. for 90 minutes. At the end of the reaction, 10 μl of the AMP-Glo first reagent was added to stop the reaction and the result was stored at room temperature for […]. After storage, 20 μl of an AMP detection solution (a mixture of AMP-Glo II reagent and Kinase-Gio at a ratio of 1:100) was added and stored at room. temperature for 1 hour. Luminescence signals were measured using a Victor® plate reader (Perkin Elmer). The maximal activity control (containing enzymes and substrates only in the presence of 1% DMSO; MAX) and the minimal activity control (containing substrates and 1% DMSO; MIN) were evaluated simultaneously. In each experiment, serially diluted reference ENPP1 inhibitors were tested together. IC50, indicating % residual activity versus compound concentration was determined by fitting inhibition curves using the 3-parameter analysis of GraphPad Prism® software. Serially diluted samples of one compound were tested two or more times and an average IC50 of each compound was calculated.

COc1ccc2c(-c3ccc(CN)cc3)n[nH]c(=O)c2c1 [Compound No. 47, 4-(4-(aminomethyl)-phenyl)-7-methoxyphthalazin-1(2H)-one hydrochloride] and COc1cc2c(-c3ccc(CN)cc3)n[nH]c(=O)c2cc1OC [Compound No. 48, 4-(4-(aminomethyl)phenyl)-6,7-dimethoxyphthalazin-1(2H)-one hydrochloride] cannot be ordered by IC50: less than 1 µM for the first, less than 1 µM for the second.

First: COc1cc2c(-c3ccc(CN)cc3)nn(C)c(=O)c2cc1OC [Compound No. 49, 4-(4-(aminomethyl)phenyl)-6,7-dimethoxy-2-methylphthalazin-1(2H)-one hydrochloride]
Second: COc1cc2c(-c3ccc4c(c3)CCNC4)nn(C)c(=O)c2cc1OC [Compound No. 58, 6,7-dimethoxy-2-methyl-4-(1,2,3,4-tetrahydroisoquinolin-6-yl)phthalazin-1(2H)-one hydrochloride]
The IC50 of the first is lower: less than 1 µM for the first, 1 to 10 µM for the second. The first is the more potent here.

First: C[C@@H](N)c1ccc(-c2n[nH]c(=O)c3ccccc23)cc1 [Compound No. 51, (R)-4-(4-(1-aminoethyl)phenyl)phthalazin-1(2H)-one hydrochloride]
Second: CC(C)(N)c1ccc(-c2n[nH]c(=O)c3ccccc23)cc1 [Compound No. 52, 4-(4-(2-aminopropan-2-yl)phenyl)phthalazin-1(2H)-one hydrochloride]
The IC50 of the first is lower: less than 1 µM for the first, 1 to 10 µM for the second.

NCc1ccc(-c2n[nH]c(=O)c3ccccc23)cc1C(F)(F)F [Compound No. 53, 4-(4-(aminomethyl)-3-(trifluoromethyl)phenyl)phthalazin-1(2H)-one hydrochloride] and O=c1[nH]nc(-c2ccc3c(c2)CCNC3)c2ccccc12 [Compound No. 55, 4-(1,2,3,4-tetrahydroisoquinolin-6-yl)phthalazin-1(2H)-one hydrochloride] cannot be ordered by IC50: less than 1 µM for the first, less than 1 µM for the second.

Cn1nc(-c2ccc3c(c2)CCNC3)c2ccccc2c1=O [Compound No. 56, 2-methyl-4-(1,2,3,4-tetrahydroisoquinolin-6-yl)phthalazin-1(2H)-one hydrochloride] and COc1cc2c(-c3ccc4c(c3)CCNC4)n[nH]c(=O)c2cc1OC [Compound No. 57, 6,7-dimethoxy-4-(1,2,3,4-tetrahydroisoquinolin-6-yl)phthalazin-1(2H)-one hydrochloride] fall in the same range of IC50: 1 to 10 µM for the first, 1 to 10 µM for the second.

COc1cc2c(-c3ccc4c(c3)CNCC4)n[nH]c(=O)c2cc1OC [Compound No. 59, 6,7-dimethoxy-4-(1,2,3,4-tetrahydroisoquinolin-7-yl) phthalazin-1(2H)-one] and CC(C)(C)OC(=O)NS(=O)(=O)Nc1cccc(-c2n[nH]c(=O)c3ccccc23)c1 [Compound No. 60, tert-butyl (N-(3-(4-oxo-3,4-dihydrophthalazin-1-yl)phenyl)sulfamoyl)carbamate] cannot be ordered by IC50: greater than 10 µM for the first, greater than 10 µM for the second.

Cn1nc(-c2cccc(NS(=O)(=O)NC(=O)OC(C)(C)C)c2)c2ccccc2c1=O [Compound No. 61, tert-butyl (N-(3-(3-methyl-4-oxo-3,4-dihydrophthalazin-1-yl)phenyl)sulfamoyl)carbamate] and Cn1nc(-c2cccc(CNS(=O)(=O)NC(=O)OC(C)(C)C)c2)c2ccccc2c1=O [Compound No. 64, tert-butyl N-(3-(3-methyl-4-oxo-3,4-dihydrophthalazin-1-yl)benzyl)sulfamoyl carbamate] cannot be ordered by IC50: greater than 10 µM for the first, greater than 10 µM for the second.

CC(C)(C)OC(=O)NS(=O)(=O)Nc1cccc(-c2nn(Cc3ccccc3)c(=O)c3ccccc23)c1 [Compound No. 62, tert-butyl (N-(3-(3-benzyl-4-oxo-3,4-dihydrophthalazin-1-yl)phenyl)sulfamoyl)carbamate] and Cn1nc(-c2ccc(CNS(=O)(=O)NC(=O)OC(C)(C)C)cc2)c2ccccc2c1=O [Compound No. 66, tert-butyl (N-(4-(3-methyl-4-oxo-3,4-dihydrophthalazin-1-yl)benzyl)sulfamoyl)carbamate] cannot be ordered by IC50: greater than 10 µM for the first, greater than 10 µM for the second.
